The values below come from US11208412B2 (DAEGU-GYEONGBUK MEDICAL INNOVATION FOUNDATION, priority 2017, dated 2021).

What all share (experiment): Kinase selectivity, DiscoverX scanMAX Kinase assay panel (% control)
What all share (assay type): binding

In assay [1] the target is T1, kinases of the scanMAX Kinase assay panel (Homo sapiens, UniProt P00533, L858R/T790M).
T1 construct: purchased DiscoverX Co. (contract measurement) scanMAX Kinase assay panel
The conditions noted are these: EGFR(L858R, T790M); 1 uM. The procedure, abridged: (§1)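 Single-point screen, 1 uM cpd in DMSO. % ctrl = (cpd − pos ctrl)/(neg ctrl − pos ctrl)×100; pos ctrl = 0%, DMSO neg ctrl = 100%. Hit cutoff <35%.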

The target of assay [2] is T2, kinases of the scanMAX Kinase assay panel (Homo sapiens, UniProt P07332).
T2 construct: purchased DiscoverX Co. (contract measurement) scanMAX Kinase assay panel
The conditions noted are these: FES; 1 uM. The procedure, abridged: as §1

Assay [3] has as its target T3, kinases of the scanMAX Kinase assay panel (Homo sapiens, UniProt P51617).
T3 construct: purchased DiscoverX Co. (contract measurement) scanMAX Kinase assay panel
The settings on record: IRAK1; 1 uM. An outline of the steps: as §1

In assay [4] the target is T4, kinases of the scanMAX Kinase assay panel (Homo sapiens, UniProt Q02750).
T4 construct: purchased DiscoverX Co. (contract measurement) scanMAX Kinase assay panel
T4 sequence (Q02750 whole entry): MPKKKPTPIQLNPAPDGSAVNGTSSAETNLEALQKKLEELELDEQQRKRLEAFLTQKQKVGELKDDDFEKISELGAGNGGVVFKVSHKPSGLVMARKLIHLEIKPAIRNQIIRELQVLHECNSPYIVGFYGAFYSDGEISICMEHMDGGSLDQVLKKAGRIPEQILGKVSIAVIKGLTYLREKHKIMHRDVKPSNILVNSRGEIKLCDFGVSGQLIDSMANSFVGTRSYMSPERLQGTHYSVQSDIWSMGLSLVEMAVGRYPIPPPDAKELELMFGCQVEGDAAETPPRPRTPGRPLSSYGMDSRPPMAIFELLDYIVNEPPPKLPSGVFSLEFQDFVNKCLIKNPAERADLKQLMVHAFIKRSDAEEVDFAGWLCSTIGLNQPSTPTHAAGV
The settings on record: MEK1; 1 uM. An outline of the steps:
as §1

In assay [5] the target is T5, kinases of the scanMAX Kinase assay panel (Homo sapiens, UniProt Q13164).
T5 construct: purchased DiscoverX Co. (contract measurement) scanMAX Kinase assay panel
T5 sequence (Q13164 whole entry): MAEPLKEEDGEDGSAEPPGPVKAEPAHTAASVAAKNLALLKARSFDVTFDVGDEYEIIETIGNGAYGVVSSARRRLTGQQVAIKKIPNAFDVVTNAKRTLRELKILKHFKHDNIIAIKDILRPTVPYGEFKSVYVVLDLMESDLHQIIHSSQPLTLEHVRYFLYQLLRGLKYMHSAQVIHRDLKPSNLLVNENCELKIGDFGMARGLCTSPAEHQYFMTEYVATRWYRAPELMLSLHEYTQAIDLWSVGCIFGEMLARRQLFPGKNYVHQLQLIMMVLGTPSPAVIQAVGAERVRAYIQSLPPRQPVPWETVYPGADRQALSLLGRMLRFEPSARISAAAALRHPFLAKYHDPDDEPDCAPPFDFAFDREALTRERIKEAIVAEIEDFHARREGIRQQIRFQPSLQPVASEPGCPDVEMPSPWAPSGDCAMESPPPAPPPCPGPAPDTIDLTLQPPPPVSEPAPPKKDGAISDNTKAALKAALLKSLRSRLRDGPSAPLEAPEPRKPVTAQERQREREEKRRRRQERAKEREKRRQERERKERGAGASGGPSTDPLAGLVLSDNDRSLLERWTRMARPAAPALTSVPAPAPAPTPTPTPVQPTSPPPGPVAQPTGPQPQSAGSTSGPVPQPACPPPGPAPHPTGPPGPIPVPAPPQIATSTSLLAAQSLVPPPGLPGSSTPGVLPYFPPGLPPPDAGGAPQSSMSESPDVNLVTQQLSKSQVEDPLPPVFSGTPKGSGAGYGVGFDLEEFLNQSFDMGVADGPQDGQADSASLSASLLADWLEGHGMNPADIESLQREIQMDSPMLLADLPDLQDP
The settings on record: ERK5; 1 uM. The procedure, abridged:
as §1

The target in assay [6] is T6, kinases of the scanMAX Kinase assay panel (Homo sapiens, UniProt Q13464).
T6 construct: purchased DiscoverX Co. (contract measurement) scanMAX Kinase assay panel
T6 sequence (Q13464 whole entry): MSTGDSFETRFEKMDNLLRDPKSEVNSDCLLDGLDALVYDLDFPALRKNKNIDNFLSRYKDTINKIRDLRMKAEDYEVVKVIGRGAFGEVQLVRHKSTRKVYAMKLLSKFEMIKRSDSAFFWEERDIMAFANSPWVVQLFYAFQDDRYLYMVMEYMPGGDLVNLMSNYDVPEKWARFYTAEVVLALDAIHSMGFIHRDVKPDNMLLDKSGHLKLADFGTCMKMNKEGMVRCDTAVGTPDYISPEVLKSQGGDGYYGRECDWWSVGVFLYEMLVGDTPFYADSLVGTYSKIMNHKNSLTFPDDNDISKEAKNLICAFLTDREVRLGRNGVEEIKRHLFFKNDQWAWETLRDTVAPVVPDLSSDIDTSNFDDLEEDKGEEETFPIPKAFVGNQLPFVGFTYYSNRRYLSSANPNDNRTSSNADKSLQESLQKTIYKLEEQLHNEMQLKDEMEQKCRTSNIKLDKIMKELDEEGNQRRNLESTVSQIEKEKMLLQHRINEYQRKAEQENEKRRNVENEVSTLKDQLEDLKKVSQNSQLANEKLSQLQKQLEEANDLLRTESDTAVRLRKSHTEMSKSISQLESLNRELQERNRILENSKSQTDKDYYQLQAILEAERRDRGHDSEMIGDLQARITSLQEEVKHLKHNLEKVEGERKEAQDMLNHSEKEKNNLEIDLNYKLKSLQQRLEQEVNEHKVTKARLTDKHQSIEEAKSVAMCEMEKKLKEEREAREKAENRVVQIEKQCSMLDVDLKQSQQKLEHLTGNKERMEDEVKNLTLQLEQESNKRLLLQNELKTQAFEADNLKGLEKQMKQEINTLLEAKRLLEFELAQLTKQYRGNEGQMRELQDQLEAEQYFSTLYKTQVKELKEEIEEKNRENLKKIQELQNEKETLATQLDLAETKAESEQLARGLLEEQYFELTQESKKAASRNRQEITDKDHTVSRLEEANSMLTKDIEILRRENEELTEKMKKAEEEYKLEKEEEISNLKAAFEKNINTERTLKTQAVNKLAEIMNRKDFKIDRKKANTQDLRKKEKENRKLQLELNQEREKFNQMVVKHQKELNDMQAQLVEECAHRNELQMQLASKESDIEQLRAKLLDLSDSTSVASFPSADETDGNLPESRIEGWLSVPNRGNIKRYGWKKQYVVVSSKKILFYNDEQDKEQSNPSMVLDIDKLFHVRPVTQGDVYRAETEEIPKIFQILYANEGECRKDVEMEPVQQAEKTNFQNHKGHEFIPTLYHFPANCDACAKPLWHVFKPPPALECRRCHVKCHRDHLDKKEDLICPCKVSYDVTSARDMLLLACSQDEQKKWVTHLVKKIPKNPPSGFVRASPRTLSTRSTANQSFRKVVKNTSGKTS
The conditions noted are these: kinase ROCK1; 1 uM in DMSO. An outline of the steps:
as §1

Assay [7] concerns the target T7, kinases of the scanMAX Kinase assay panel (Homo sapiens, UniProt Q8WXR4).
T7 construct: purchased DiscoverX Co. (contract measurement) scanMAX Kinase assay panel
T7 sequence (Q8WXR4 1-1341): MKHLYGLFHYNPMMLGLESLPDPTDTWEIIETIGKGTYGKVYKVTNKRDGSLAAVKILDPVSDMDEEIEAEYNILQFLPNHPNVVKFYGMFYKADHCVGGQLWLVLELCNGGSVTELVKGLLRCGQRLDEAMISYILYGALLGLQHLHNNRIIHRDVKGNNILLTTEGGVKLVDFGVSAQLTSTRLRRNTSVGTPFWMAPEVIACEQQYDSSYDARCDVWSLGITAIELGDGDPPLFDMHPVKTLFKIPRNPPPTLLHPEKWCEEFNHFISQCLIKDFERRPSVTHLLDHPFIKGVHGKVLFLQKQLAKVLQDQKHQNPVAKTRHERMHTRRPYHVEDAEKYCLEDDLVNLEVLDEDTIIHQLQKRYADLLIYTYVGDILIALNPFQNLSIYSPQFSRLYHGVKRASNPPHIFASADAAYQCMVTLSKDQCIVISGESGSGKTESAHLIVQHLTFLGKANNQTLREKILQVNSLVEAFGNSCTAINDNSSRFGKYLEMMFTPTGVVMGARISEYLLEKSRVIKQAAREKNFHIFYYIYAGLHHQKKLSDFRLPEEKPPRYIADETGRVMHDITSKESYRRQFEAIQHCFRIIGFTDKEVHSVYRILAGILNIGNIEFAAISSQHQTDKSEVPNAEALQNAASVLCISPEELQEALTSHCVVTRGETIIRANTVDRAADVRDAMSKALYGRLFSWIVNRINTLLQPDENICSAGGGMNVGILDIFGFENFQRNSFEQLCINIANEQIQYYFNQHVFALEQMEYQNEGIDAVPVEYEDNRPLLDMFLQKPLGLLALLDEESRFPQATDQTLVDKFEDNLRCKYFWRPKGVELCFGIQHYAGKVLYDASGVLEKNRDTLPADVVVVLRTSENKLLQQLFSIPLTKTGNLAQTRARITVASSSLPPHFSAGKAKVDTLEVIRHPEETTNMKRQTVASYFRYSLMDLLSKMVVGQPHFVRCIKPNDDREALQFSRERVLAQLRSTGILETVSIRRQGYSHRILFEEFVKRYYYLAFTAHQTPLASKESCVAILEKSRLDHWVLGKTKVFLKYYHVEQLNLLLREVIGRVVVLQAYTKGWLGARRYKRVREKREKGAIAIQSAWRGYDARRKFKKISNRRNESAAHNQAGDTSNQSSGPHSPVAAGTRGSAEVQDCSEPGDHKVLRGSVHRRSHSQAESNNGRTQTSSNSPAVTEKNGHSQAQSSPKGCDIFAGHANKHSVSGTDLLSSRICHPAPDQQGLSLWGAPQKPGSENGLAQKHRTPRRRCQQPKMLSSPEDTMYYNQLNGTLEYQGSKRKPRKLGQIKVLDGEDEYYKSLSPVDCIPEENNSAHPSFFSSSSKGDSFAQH
The settings on record: MYO3B; 1 uM. An outline of the steps: as §1

In assay [8] the target is T8, kinases of the scanMAX Kinase assay panel (Homo sapiens, UniProt Q9HBY8).
T8 construct: purchased DiscoverX Co. (contract measurement) scanMAX Kinase assay panel
T8 sequence (Q9HBY8 1-367): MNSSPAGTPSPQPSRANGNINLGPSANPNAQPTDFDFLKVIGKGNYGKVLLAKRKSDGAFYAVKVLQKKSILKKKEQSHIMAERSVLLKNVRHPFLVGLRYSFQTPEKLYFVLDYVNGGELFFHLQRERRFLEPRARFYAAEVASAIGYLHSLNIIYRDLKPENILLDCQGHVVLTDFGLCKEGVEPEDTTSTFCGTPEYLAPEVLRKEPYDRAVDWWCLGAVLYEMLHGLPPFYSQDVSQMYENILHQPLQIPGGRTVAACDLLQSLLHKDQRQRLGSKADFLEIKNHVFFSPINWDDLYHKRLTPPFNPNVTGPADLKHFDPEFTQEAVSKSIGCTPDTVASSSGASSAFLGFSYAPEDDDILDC
The settings on record: kinase SGK2; 1 uM in DMSO. The procedure, abridged: as §1

The target in assay [9] is T9, kinases of the scanMAX Kinase assay panel (Homo sapiens, UniProt Q9NQU5).
T9 construct: purchased DiscoverX Co. (contract measurement) scanMAX Kinase assay panel
The settings on record: PAK6; 1 uM. An outline of the steps: as §1

Each structure is given as a SMILES string.

T3 sequence (P51617 whole entry): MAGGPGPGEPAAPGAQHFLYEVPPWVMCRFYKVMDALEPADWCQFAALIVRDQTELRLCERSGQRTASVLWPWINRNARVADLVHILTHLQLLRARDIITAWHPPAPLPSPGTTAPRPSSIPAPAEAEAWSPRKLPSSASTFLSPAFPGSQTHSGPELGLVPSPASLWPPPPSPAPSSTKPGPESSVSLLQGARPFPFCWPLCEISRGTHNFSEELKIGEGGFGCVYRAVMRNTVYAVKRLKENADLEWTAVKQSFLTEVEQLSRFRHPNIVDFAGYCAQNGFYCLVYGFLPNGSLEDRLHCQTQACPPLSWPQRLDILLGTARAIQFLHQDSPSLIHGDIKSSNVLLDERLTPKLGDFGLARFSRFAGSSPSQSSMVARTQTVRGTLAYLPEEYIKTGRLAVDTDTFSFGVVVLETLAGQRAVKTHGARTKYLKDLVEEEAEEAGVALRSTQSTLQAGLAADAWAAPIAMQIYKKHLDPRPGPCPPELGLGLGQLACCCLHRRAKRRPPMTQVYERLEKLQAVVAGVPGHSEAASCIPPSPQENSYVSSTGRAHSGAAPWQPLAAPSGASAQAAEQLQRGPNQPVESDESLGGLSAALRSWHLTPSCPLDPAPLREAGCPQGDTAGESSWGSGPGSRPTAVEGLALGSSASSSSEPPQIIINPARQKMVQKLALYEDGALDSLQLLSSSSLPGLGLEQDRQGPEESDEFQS
T1 sequence (P00533 25-1210 T790M/L858R): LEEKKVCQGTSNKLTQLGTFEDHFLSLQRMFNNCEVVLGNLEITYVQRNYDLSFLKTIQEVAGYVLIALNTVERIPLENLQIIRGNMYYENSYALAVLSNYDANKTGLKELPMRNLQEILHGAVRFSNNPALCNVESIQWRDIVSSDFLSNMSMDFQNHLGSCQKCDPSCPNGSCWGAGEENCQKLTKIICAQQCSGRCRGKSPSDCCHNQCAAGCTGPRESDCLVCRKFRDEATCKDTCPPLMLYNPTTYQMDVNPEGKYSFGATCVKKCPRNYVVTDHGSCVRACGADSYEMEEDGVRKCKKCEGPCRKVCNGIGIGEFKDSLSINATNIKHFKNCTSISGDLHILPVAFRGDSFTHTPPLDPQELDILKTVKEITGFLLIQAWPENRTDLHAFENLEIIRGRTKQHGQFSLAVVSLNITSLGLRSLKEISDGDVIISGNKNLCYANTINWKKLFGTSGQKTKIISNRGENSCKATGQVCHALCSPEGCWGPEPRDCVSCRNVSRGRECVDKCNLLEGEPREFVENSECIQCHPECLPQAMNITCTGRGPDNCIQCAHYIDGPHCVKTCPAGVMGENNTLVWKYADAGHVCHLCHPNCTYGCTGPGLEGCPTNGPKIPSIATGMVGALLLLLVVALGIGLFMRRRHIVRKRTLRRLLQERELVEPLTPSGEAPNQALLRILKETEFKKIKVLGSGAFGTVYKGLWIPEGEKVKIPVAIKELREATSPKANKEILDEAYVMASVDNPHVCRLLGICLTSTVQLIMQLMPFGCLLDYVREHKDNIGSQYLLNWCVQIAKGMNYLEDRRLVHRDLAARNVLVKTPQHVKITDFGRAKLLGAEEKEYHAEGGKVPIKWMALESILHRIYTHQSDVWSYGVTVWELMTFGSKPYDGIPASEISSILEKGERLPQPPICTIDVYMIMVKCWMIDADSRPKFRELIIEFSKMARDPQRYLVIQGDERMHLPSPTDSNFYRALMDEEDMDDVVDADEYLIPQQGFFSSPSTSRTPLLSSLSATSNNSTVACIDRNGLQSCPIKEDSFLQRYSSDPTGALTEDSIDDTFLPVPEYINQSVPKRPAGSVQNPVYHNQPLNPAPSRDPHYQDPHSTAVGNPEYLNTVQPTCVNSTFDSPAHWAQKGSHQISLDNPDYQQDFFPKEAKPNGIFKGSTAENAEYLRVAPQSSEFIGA

For `CNc1nc(Nc2ccc(C(=O)N3CCOCC3)cc2OC)nc2[nH]cc(C#N)c12` [Example 1, 2-((2-methoxy-4-(morpholine-4-carbonyl)phenyl)amino)-4-(methylamino)-7H-pyrrolo[2,3-d]pyrimidine-5-carbonitrile], the remaining binding at 1 µM in assay [1] was 54%; in assay [2] it was 61%; in [3], 75%; in assay [4], 89%; in assay [5] it was 72%; in assay [6], 64%. Also, the figures for the remaining binding at 1 µM in [7], in [8] and in assay [9] were 84%, 82% and 76%, respectively.
Take `CC1(Nc2nc(Nc3cnn([C@H]4CCN(C5COC5)C[C@@H]4F)c3Cl)nc3[nH]cc(C#N)c23)CC1` [Example 52, 2-((5-chloro-1-((3S,4S)-3-fluoro-1-(oxetane-3-yl)piperidine-4-yl)-1H-pyrazole-4-yl)amino)((1-methylcyclopropyl)amino)-7H-pyrrolo[2,3-d]pyrimidine-5-carbonitrile]: the remaining binding at 1 µM in assay [1] came out at 2.3%; in assay [2], 1.3%; in assay [3], 1.4%; in assay [4], 0.1%; in assay [5], 13%; in [6], 28%. The remaining binding at 1 µM in assay [7] came out at 10%; in assay [8], 74%; in assay [9], 8.3%.
Turning to `CCNc1nc(Nc2ccc(C(=O)N3CCC(N4CCOCC4)CC3)cc2OC)nc2[nH]cc(C(F)(F)F)c12` [Example 104, (4-((4-(ethylamino)-5-(trifluoromethyl)-7H-pyrrolo[2,3-d]pyrimidine-2-yl)amino)-3-methoxyphenyl)(4-morpholinopiperidine-1-yl)methanone], the remaining binding at 1 µM was 55% in assay [1]; 36% in assay [2]; 100% in assay [3]; 86% in [4]; 18% in assay [5]; 100% in assay [6]. The figures for the remaining binding at 1 µM in assay [7], in assay [8] and in assay [9] were 19%, 100% and 91%, respectively.
